Results taken from patent publication US20110263454A1, “Methods of Identifying Functional Characteristics of Promoters, Transcription Modifying Proteins and Transcription Modulating Agents” (Salk Institute for Biological Studies, priority 2008, published 2011).

Legend:
[1] = tested on: mCAR promoter; assay: NHR-promoter luciferase screen, mCAR promoter; type: cell-based, mouse; conditions: for luciferase activity normalized to lacZ activity and to a control, mCAR: mCAR promoter-luciferase, CV-1 cells, NHR +/- ligand, control = 1.00; for Luc. act., normalized to lacZ / Normalized Luc. act., normalized to control: mCAR promoter, HR/ligand component
Method: (§1) The use, feasibility, and reproducibility of the functional NHR-promoter screen in a 48-well format have been tested validated. Briefly, there were co-expressed 50 ng of each NHR/NHR homodimer or NHR/RXR heterodimer with 100 ng promoter/luciferase construct and 50 ng of LacZ (as a control for transfection efficiency) in CV-1 cells using Fugene HD (Roche) as a transfection reagent (alternatively or additionally, a CMV-YFP construct can be used as a transfection control). Each of the nuclear hormone receptors that were used in these experiments was cloned into a pcDNA3.1 vector and comprised a C-terminally linked V5H6 tag. Twenty-four hours after transfection, appropriate ligands were added, where applicable, (see Table 5 for various ligands and concentrations and after 48 hrs, samples were assayed for luciferase and LacZ activity. To measure for luciferase activity 15 ul of sample was added to 30 ul of luciferase buffer (20 mM tricine, 1.07 mM MgCarbonate, 2.67 mM MgSulfate, 0.1 mM Naz-EDTA, 5 mM DTT, 5 mM ATP, 0.15 mg/ml CoA, 0.5 mM Luciferin), mixed briefly, and run in a Perkin Elmer Victor 5 luminometer. Thus, the functional NHR-promoter screen was used to observe the transcriptional activity of 29 promoters from various physiological pathways including inflammation, lipid and sugar metabolism, cholesterol transport, xenobiotic metabolism, and circadian rhythm.
(§2) The promoters that facilitate transcription of the indicated gene products that were tested using the protocols described herein are listed in the first row of the table. The nuclear hormone receptors and, where applicable, ligands that were assayed for their transcriptional effects on the promoters are listed in the first column of the table. The data represent the luciferase activity of each sample normalized to both the lacZ activity of that sample and to a control, e.g., no NHR or ligand, as customary in the art. As described previously, these normalizations allow the transcriptional activity of each reporter cell to be compared to other samples.
(§3) Tables 7-40 show the transcriptional effects of the hormone receptors, and, where applicable, ligands (orphan receptors are screened without ligand), on each individual promoter. […] The control data of each table are shown in their last rows.

[2] = tested on: hG6PD promoter; assay: NHR-promoter luciferase screen, hG6PD promoter; type: cell-based, human; conditions: for Luc. act., normalized to lacZ / Normalized Luc. act., normalized to control: G6PD promoter reporter, co-transfected HR, without or with its ligand; for Normalized Luc. act., normalized to control: relative to control; for luciferase activity normalized to lacZ activity and to a control, hG6PD: hG6PD promoter-luciferase, CV-1 cells, NHR +/- ligand, control = 1.00
Method: as §1, §2, §3

[3] = tested on: Bmal1 promoter; assay: NHR-promoter luciferase screen, Bmal1 promoter; type: cell-based, mouse; conditions: for Luc. act., normalized to lacZ / Normalized Luc. act., normalized to control: Bmal1 promoter, HR component without or with ligand; for mBmal1 promoter reporter activity: transcription factor +/- ligand, control = 1.00
Method: as §1, §2, §3

[4] = tested on: RevErba promoter; assay: NHR-promoter luciferase screen, RevErba (RVRa) promoter; type: cell-based; set-up: key to mRevErba promoter reporter activity / Normalized Luc. act., normalized to control: luciferase activity normalized to lacZ and to control (no NHR/ligand); conditions: for Luc. act., normalized to lacZ / Normalized Luc. act., normalized to control / normalized Luc. act. on a logarithmic scale (column without head, Table 33) / negative reciprocal of normalized Luc. act. (fold repression; Table 33): RVRa promoter; for Luc. act., normalized to lacZ / Normalized Luc. act., normalized to control: HR component without or with ligand; for normalized Luc. act. on a logarithmic scale (column without head, Table 33): log10 of activity normalized to control; for mRevErba promoter reporter activity: transcription factor +/- ligand, control = 1.00; for negative reciprocal of normalized Luc. act. (fold repression; Table 33): given only where activity is below control
Method: Briefly, there were co-expressed 50 ng of each NHR/NHR homodimer or NHR/RXR heterodimer with 100 ng promoter/luciferase construct and 50 ng of LacZ (as a control for transfection efficiency) in CV-1 cells using Fugene HD (Roche) as a transfection reagent (alternatively or additionally, a CMV-YFP construct can be used as a transfection control). Each of the nuclear hormone receptors that were used in these experiments was cloned into a pcDNA3.1 vector and comprised a C-terminally linked V5H6 tag.
as §2
The control data of each table are shown in their last rows.

[5] = tested on: mABCA1 promoter; assay: NHR-promoter luciferase screen, mABCA1 promoter; type: cell-based, mouse; conditions: for Luc. act., normalized to lacZ / Normalized Luc. act., normalized to control: ABCA1 promoter, hormone receptor with or without its ligand; for Normalized Luc. act., normalized to control: relative to control; for mABCA1 promoter reporter activity: transcription factor +/- ligand, control = 1.00
Method: as §1, §2, §3

| Substance | luciferase activity normalized to lacZ activity and to a control, mCAR [1] | Luc. act., normalized to lacZ [1] | Normalized Luc. act., normalized to control [1] | Luc. act., normalized to lacZ [2] | Normalized Luc. act., normalized to control [2] | luciferase activity normalized to lacZ activity and to a control, hG6PD [2] | Luc. act., normalized to lacZ [3] | Normalized Luc. act., normalized to control [3] | mBmal1 promoter reporter activity [3] | Luc. act., normalized to lacZ [4] | Normalized Luc. act., normalized to control [4] | normalized Luc. act. on a logarithmic scale (column without head, Table 33) [4] | mRevErba promoter reporter activity [4] | Luc. act., normalized to lacZ [5] | Normalized Luc. act., normalized to control [5] | mABCA1 promoter reporter activity [5] | negative reciprocal of normalized Luc. act. (fold repression; Table 33) [4] |
| --- | --- | --- | --- | --- | --- | --- | --- | --- | --- | --- | --- | --- | --- | --- | --- | --- | --- |
| PPARg: Peroxisome proliferator activated receptor γ (NR1C3), cDNA driver | 1.25 | 47.7 | 1.3 | 66.0 | 1.8 | 1.77 | 13.8 | 0.9 | 0.88 | 40.6 | 1.5 | 0.16 | 1.45 | 14.4 | 2.6 | 2.56 | – |
| LXRa: Liver X Receptor α (NR1H3), cDNA driver | 0.78 | 29.5 | 0.8 | 60.5 | 1.6 | 1.62 | 19.7 | 1.3 | 1.26 | – | – | – | – | 93.0 | 16.6 | 16.56 | – |
| RXRa: Retinoic X Receptor α (NR2B1), cDNA driver | 0.97 | 36.9 | 1.0 | 45.6 | 1.2 | 1.22 | 11.8 | 0.8 | 0.75 | 26.26 | 0.9 | −0.03 | 0.94 | 8.7 | 1.6 | 1.56 | −1.065 |
| PPARa: Peroxisome proliferator activated receptor α (NR1C1), cDNA driver | 0.88 | 33.6 | 0.9 | 55.6 | 1.5 | 1.49 | 8.1 | 0.5 | 0.52 | 52.1 | 1.9 | 0.27 | 1.86 | 10.7 | 1.9 | 1.90 | – |
| SF-1: Steroidogenic Factor 1 (NR5A1, SF1), cDNA driver | 2.43 | 92.6 | 2.4 | 124.1 | 3.3 | 3.32 | 11.4 | 0.7 | 0.73 | 125.0 | 4.5 | 0.65 | 4.47 | 34.4 | 6.1 | 6.12 | – |
| AR: Androsterone Receptor (NR3C4), cDNA driver | 0.81 | 30.88 | 0.8 | 41.5 | 1.1 | 1.11 | 13.5 | 0.9 | 0.86 | 13.5 | 0.5 | −0.31 | 0.48 | 8.3 | 1.5 | 1.48 | −2.065 |
